≈ marks a conversion by molar mass, not a printed value. Where two headings read alike, the source gives them in different places.
Key:
[1] = background statement, in words; cited from earlier work
pH stability = type: physicochemical; conditions: 5.5 mM, buffer/ethanol 5:1 v/v; for remaining at 100 h, 5500 µM: read-out: Residual amounts (%) after 100 hours; for Residual amounts (%) after 100 hours: 5500 µM
From the text: The chromanol glycoside obtained in Examples 1 to 5 [6-hydroxy-2,5,7,8-tetramethyl chroman-2-methyl-α-D-glucopyranoside represented by the aforementioned formula (4)], the chromanol glycoside obtained in Examples 6 to 8 [6-hydroxy-2,5,7,8-tetramethyl chroman-2-ethyl-α-D-glucopyranoside represented by the aforementioned formula (7)], the chromanol glycoside obtained in Examples 4 and 5 [6-hydroxy-2,5,7,8-tetramethyl chroman-2-methyl-α-D-maltopyranoside represented by the aforementioned formula (5)], and the chromanol glycoside obtained in Example 8 [6 -hydroxy-2,5,7,8-tetramethyl chroman-2-ethyl-α-D-maltopyranoside represented by the aforementioned formula (8)] were tested for pH stability. This test was specifically performed by incubating a 5.5 mM chromanol glycoside solution (buffer/ethanol, 5:1 v/v) having a varying pH value. At regular intervals, aliquots of the reaction mixture were withdrawn and the residual amounts of chromanol glycoside were measured by HPC. For the purpose of comparison, the 2-substituted alcohols represented by the aforementioned formulas (3) and (6) and Trolox were similarly tested.
It is clearly noted from the test results that the conversion of 2-substituted alcohols into respective glycosides enhances pH stability. The buffer used for the test were 100 mM acetate buffer of pH 5.5, 100 mM phosphate buffer of pH 7.0, and 100 mM tris-HCl buffer of pH 8,5.

solubility in water = type: physicochemical; conditions: 25 °C, constant stirring at 200 rpm, HPLC; for solubility: water, read-out: solubility in water (amounts of sample dissolved in 1 ml of water)
From the text: The chromanol glycoside obtained in Examples 1 to 5 [6-hydroxy-2,5,7,8-tetramethyl chroman-2-methyl-α-D-glucopyranoside represented by the aforementioned formula (4)], the chromanol glycoside obtained in Examples 6 to 8 [6-hydroxy-2,5,7,8-tetramethyl chroman-2-ethyl-α-D-glucopyranoside represented by the aforementioned formula (7)], the chromanol glycoside obtained in Examples 4 and 5 [6-hydroxy-2,5,7,8-tetramethyl chroman-2-methyl-α-D-maltopyranoside represented by the aforementioned formula (5)], and the chromanol glycoside obtained in Example 8 [6-hydroxy-2,5,7,8-tetramethyl chroman-2-ethyl-α-D-maltopyranoside represented by the aforementioned formula (8)] were tested for solubility in water. Specifically, this test was performed by adding an excess amount of a given chromanol glycoside to 1 ml of water. The reaction mixture was incubated at 25° C. for […] with constant stirring at 200 rpm. After 100 hours, the reaction mixture was transferred into a membrane filter (produced by Nihon Millipore Ltd. and marketed under trademark designation of "HPLC Sample Prep C02-LG") and insoluble substances were removed by centrifugation (4,100×g, 10 minutes, 20° C.). The filtered solution was subjected to HPLC to determine the amount of chromanol glycoside remaining in the aqueous solution. For the purpose of comparison, the 2-substituted alcohols represented by the aforementioned formulas (3) and […] and Trolox were similarly tested.
The numerals given in the tables represent the amounts of sample dissolved in 1 ml of water.

thermal stability = type: physicochemical; conditions: 5 mM solution in water/ethanol 1:3 v/v, read-out: Residual amounts (%) after 100 hours
From the text: The chromanol glycoside obtained in Examples 1 to 5 [6-hydroxy-2,5,7,8-tetramethyl chroman-2-methyl-α-D-glucopyranoside represented by the aforementioned formula (4)], the chromanol glycoside obtained in Examples 6 to 8 [6-hydroxy-2,5,7,8-tetramethyl chroman-2-ethyl-α-D-glucopyranoside represented by the aforementioned formula (7)], the chromanol glycoside obtained in Examples 4 and 5 [6-hydroxy-2,5,7,8-tetramethyl chroman-2methyl-α-D-maltopyranoside represented by the aforementioned formula (5)], and the chromanol glycoside obtained in Example 8 [6-hydroxy-2,5,7,8-tetramethyl chroman-2-ethyl-α-D-maltopyranoside represented by the aforementioned formula (8)]were tested for thermal stability. Specifically, this test was performed by incubating a 5 mM chromanol glycoside solution (water/ethanol, 1:3 v/v) under varying temperature conditions. At regular intervals, aliquots of the reaction mixture were withdrawn and the residual amounts of chromanol glycoside were measured by HPLC. For the purpose of comparison, the 2-substituted alcohols represented by the aforementioned formulas (3) and (6), α-tocopherol, and Trolox were similarly tested.
It is clearly noted from these test results that the conversion of 2-substituted alcohols into corresponding glycosides enhances thermal stability.

[2] = antioxidant activity using liposomal membranes (phosphatidylcholine hydroperoxides); type: biochemical; conditions: 0.1 μmol antioxidant in 1.1 ml 10 mM tris-HCl buffer pH 7.4; water-soluble radical generator; in words
From the text: Antioxidant activity on the chromanol glycoside obtained in Examples 1 to 5 [6-hydroxy-2,5,7,8-tetramethyl chroman-2-methyl-α-D-glucopyranoside represented by the aforementioned formula (4)[, the chromanol glycoside obtained in Examples 6 to 8 [6-hydroxy-2,5,7,8-tetramethyl chroman-2-ethyl-α-D-glucopyranoside represented by the aforementioned formula (7)], the chromanol glycoside obtained in Examples 4 and 5 [6-hydroxy-2,5,7,8-tetramethyl chroman-2-methyl-α-D-maltopyranoside represented by the aforementioned formula (5)], and the chromanol glycoside obtained in Example 8 [6-hydroxy-2,5,7,8-tetramethyl chroman-2-ethyl-α-D-malto-pyranoside represented by the aforementioned formula (8)] was investigated by using a liposonal membranes. Specifically, this test was performed by adjusting a reaction solution consisting of 5.5 μmol of a multilameller liposomes of egg yolk phosphatidylcholine, 16.5 μmol of a water-soluble radical generator [2,2'-azo-bis(2-amidinopropane) dihydrochloride], and 0.1 μmol of antioxidant in 1.1 ml of a 10 mM tris-HCl buffer (pH 7.4). At regular intervals, aliquots of the reaction mixture were withdrawn and the amount of phosphatidylcholine hydroperoxides were measured by HPLC.

[3] = hydroperoxidation of methyl linoleate via radical chain reaction in hexane/isopropyl alcohol; type: biochemical; conditions: 0.1 μmol antioxidant in 1.1 ml hexane/isopropyl alcohol 1:1; 37 °C; oil-soluble radical generator; in words
From the text: Antioxidant activity on the chromanol glycoside obtained in Examples 1 to 5 [6-hydroxy-2,5,7,8-tetramethyl chroman-2-methyl-α-D-glucopyranoside represented by the aforementioned formula (4)], the chromanol glycoside obtained in Examples 6 to 8 [6-hydroxy-2,5,7,8-tetramethyl chroman-2-ethyl-α-D-glucopyranoside represented by the aforementioned formula (7)], the chromanol glycoside obtained in Examples 4 and 5 [6-hydroxy-2,5,7,8-tetramethyl chroman-2-methyl-α-D-maltopyranoside represented by the aforementioned formula (5)], and the chromanol glycoside obtained in Example 8 [6-hydroxy-2,5,7,8-tetramethyl chroman-2-ethyl-α-D-maltopyranoside represented by the aforementioned formula (8)] was investigated by measuring the hydroperoxidation of methyl linoleate via radical chain reaction. Specifically, this test was performed by incubating 132 μmol of methyl linoleate, 16.5 μmol of an oil-soluble radical generator [2,2'-azo-bis(2,4-dimethyl valeronitrile)], 0.1 μmol of antioxidant in 1.1 ml of a hexane/isopropyl alcohol (1:1 v/v), and the mixture was incubated at 37° C. At regular intervals, aliquots of the reaction mixture were withdrawn and the amount of methyl linoleate hydroperoxides were measured by HPLC. […] EXAMPLE 10

[4] = acetate buffer/ethanol 5:1, pH 5.5, pH 5.5 (100 mM acetate buffer)
[5] = phosphate buffer/ethanol 5:1, pH 7, pH 7.0 (100 mM phosphate buffer)
[6] = tris-hcl buffer/ethanol 5:1, pH 8.5, pH 8.5 (100 mM tris-HCl buffer)

| SMILES | solubility in water [1] | remaining at 100 h, 5500 µM (pH stability; [4]) | remaining at 100 h, 5500 µM (pH stability; [5]) | remaining at 100 h, 5500 µM (pH stability; [6]) | solubility (solubility in water) | remaining at 100 h, 5000 µM (thermal stability; water/ethanol 1:3, 50 °C) | remaining at 100 h, 5000 µM (thermal stability; water/ethanol 1:3, 60 °C) | remaining at 100 h, 5000 µM (thermal stability; water/ethanol 1:3, 70 °C) | antioxidant activity (phosphatidylcholine hydroperoxides) [2] | antioxidant activity (methyl linoleate hydroperoxides) [3] | Residual amounts (%) after 100 hours (pH stability; pH 5.5 (100 mM acetate buffer), listed as formula (7) of Example 7, 6000 min) | Residual amounts (%) after 100 hours (pH stability; pH 5.5 (100 mM acetate buffer), listed as formula (7) of Example 8, 6000 min) | Residual amounts (%) after 100 hours (pH stability; pH 7.0 (100 mM phosphate buffer), listed as formula (7) of Example 7, 6000 min) | Residual amounts (%) after 100 hours (pH stability; pH 7.0 (100 mM phosphate buffer), listed as formula (7) of Example 8, 6000 min) | Residual amounts (%) after 100 hours (pH stability; pH 8.5 (100 mM tris-HCl buffer), listed as formula (7) of Example 8, 6000 min) | solubility in water (amounts of sample dissolved in 1 ml of water) (solubility in water; listed as formula (7) of Example 7) | solubility in water (amounts of sample dissolved in 1 ml of water) (solubility in water; listed as formula (7) of Example 8) |
| --- | --- | --- | --- | --- | --- | --- | --- | --- | --- | --- | --- | --- | --- | --- | --- | --- | --- |
| Cc1c(C)c2c(c(C)c1O)CCC(C)(C(=O)O)O2 (stereo not drawn) [Trolox, 6-hydroxy-2,5,7,8-tetramethyl chroman-2-carboxylic acid, reference compound] | extremely low solubility in water | 75% | 35% | 13% | 0.2 mg/mL (≈ 799 µM) |  |  |  |  |  |  |  |  |  |  |  |  |
| Cc1c(C)c2c(c(C)c1O)CCC(C)(CCCC(C)CCCC(C)CCCC(C)C)O2 (stereo not drawn) [α-Tocopherol, reference compound] |  |  |  |  |  | 85% | 79% | 30% |  |  |  |  |  |  |  |  |  |
| Cc1c(C)c2c(c(C)c1O)CCC(C)(CCO[C@H]1O[C@H](CO)[C@@H](O)[C@H](O)[C@H]1O)O2 (stereo partly drawn) [formula (7), 6-hydroxy-2,5,7,8-tetramethyl chroman-2-ethyl-α-D-glucopyranoside] |  | 69% | 24% | 7% | 33 mg/mL |  |  |  | more effective antioxidants than ascorbic acid | excel 3,5-tert-butyl-4-hydroxytoluene and equal α-tocopherol | 71% | 70% | 26% | 25% | 8% | 45 mg/mL | 45 mg/mL |
